Test results reported in US6905841B2, “Enzymatic substrates for detecting Pseudomonas aeruginas” (Biomerieux S.A., priority 1999, dated 2005).
Where two headings read alike, the source gives them in different places.

Legend:
[1] = test system: β-alanine aminopeptidase; conditions: Citrobacter koseri; 1 strain tested; read after 22 to 24 hours
[2] = test system: β-alanine aminopeptidase; conditions: Proteus mirabilis; 2 strains tested; read after 22 to 24 hours
[3] = test system: β-alanine aminopeptidase; conditions: Serratia liquefaciens; 1 strain tested; read after 22 to 24 hours
[4] = test system: β-alanine aminopeptidase; conditions: Achromobacter xylosoxydans; 2 strains tested; read after 22 to 24 hours
[5] = test system: β-alanine aminopeptidase; conditions: Burkholderia vesicularis; 1 strain tested; read after 22 to 24 hours
[6] = test system: β-alanine aminopeptidase; conditions: Myroïdes spp.; 1 strain tested; read after 22 to 24 hours
[7] = test system: β-alanine aminopeptidase; conditions: Pseudomonas fluorescens; 2 strains tested; read after 22 to 24 hours
[8] = test system: β-alanine aminopeptidase; conditions: Ralstonia pickettii; 1 strain tested; read after 22 to 24 hours
[9] = test system: β-alanine aminopeptidase; conditions: Shewanella algae; 1 strain tested; read after 22 to 24 hours
[10] = test system: β-alanine aminopeptidase; conditions: Shewanella putrefaciens; 1 strain tested; read after 22 to 24 hours
[11] = test system: β-alanine aminopeptidase; conditions: Streptococcus agalactiae; 1 strain tested; read after 22 to 24 hours
[12] = test system: β-alanine aminopeptidase; conditions: Streptococcus pyogenes; 2 strains tested; read after 22 to 24 hours
[13] = test system: β-alanine aminopeptidase; conditions: Enterococcus faecalis; 2 strains tested; read after 22 to 24 hours
[14] = test system: β-alanine aminopeptidase; conditions: Enterococcus faecium; 2 strains tested; read after 22 to 24 hours
[15] = test system: β-alanine aminopeptidase; conditions: Vibrio vulnificus; 1 strain tested; read after 22 to 24 hours
[16] = test system: β-alanine aminopeptidase; assay: APIZYM-type test strips with β-alanyl-β-naphthylamide; format: cell-based; conditions: Salmonella choleraesuis; five strains
[17] = test system: β-alanine aminopeptidase; assay: as above; format: cell-based; conditions: Salmonella arizonae; five strains
[18] = test system: β-alanine aminopeptidase; assay: as above; format: cell-based; conditions: Citrobacter freundii; five strains
[19] = test system: β-alanine aminopeptidase; assay: as above; format: cell-based; conditions: Enterobacter aerogenes; five strains
[20] = test system: β-alanine aminopeptidase; assay: as above; format: cell-based; conditions: Serratia fonticola; five strains
[21] = test system: β-alanine aminopeptidase; assay: as above; format: cell-based; conditions: Serratia plymuthica; five strains
[22] = test system: β-alanine aminopeptidase; assay: as above; format: cell-based; conditions: Proteus vulgaris; five strains
[23] = test system: β-alanine aminopeptidase; assay: as above; format: cell-based; conditions: Proteus morganii; five strains
[24] = test system: β-alanine aminopeptidase; assay: as above; format: cell-based; conditions: Providencia alcalifaciens; five strains
[25] = test system: β-alanine aminopeptidase; format: cell-based; conditions: Yersinia pseudotuberculosis; five strains
[26] = test system: β-alanine aminopeptidase; assay: APIZYM-type test strips with β-alanyl-β-naphthylamide; format: cell-based; conditions: Pseudomonas putida; five strains
[27] = test system: β-alanine aminopeptidase; assay: as above; format: cell-based; conditions: Pseudomonas stutzeri; five strains
[28] = test system: β-alanine aminopeptidase; assay: as above; format: cell-based; conditions: Ralstonia picketti; five strains
[29] = test system: β-alanine aminopeptidase; assay: as above; format: cell-based; conditions: Pseudomonas oryzihabitans; five strains
[30] = test system: β-alanine aminopeptidase; assay: as above; format: cell-based; conditions: Sphingomonas paucimobilis; five strains
[31] = test system: β-alanine aminopeptidase; assay: as above; format: cell-based; conditions: Oligella ureolytica; 2 strains
[32] = test system: β-alanine aminopeptidase; assay: as above; format: cell-based; conditions: Plesiomonas shigelloïdes; five strains
[33] = test system: β-alanine aminopeptidase; assay: as above; format: cell-based; conditions: Moraxella lac. sp. liquefaciens; 7 strains
[34] = test system: β-alanine aminopeptidase; assay: as above; format: cell-based; conditions: Actinobacillus spp.; five strains

NCCC(=O)c1c(N)cc(Cl)c(O)c1Cl
Number of negative results [1]: 1
Number positive results [1]: 0
Number of negative results [2]: 2
Number positive results [2]: 0
Number of negative results [3]: 0
Number positive results [3]: 1
Number of negative results [4]: 2
Number positive results [4]: 0
Number of negative results [5]: 1
Number positive results [5]: 0
Number of negative results [6]: 1
Number positive results [6]: 0
Number of negative results [7]: 1
Number positive results [7]: 1
Number of negative results [8]: 1
Number positive results [8]: 0
Number of negative results [9]: 1
Number positive results [9]: 0
Number of negative results [10]: 1
Number positive results [10]: 0
Number of negative results [11]: 1
Number positive results [11]: 0
Number of negative results [12]: 2
Number positive results [12]: 0
Number of negative results [13]: 2
Number positive results [13]: 0
Number of negative results [14]: 2
Number positive results [14]: 0
Number of negative results [15]: 1
Number positive results [15]: 0

β-alanyl-β-naphthylamide
β-alanine aminopeptidase activity, result [16]: negative
β-alanine aminopeptidase activity, result [17]: negative
β-alanine aminopeptidase activity, result [18]: negative
β-alanine aminopeptidase activity, result [19]: negative
β-alanine aminopeptidase activity, result [20]: negative
β-alanine aminopeptidase activity, result [21]: negative
β-alanine aminopeptidase activity, result [22]: negative
β-alanine aminopeptidase activity, result [23]: negative
β-alanine aminopeptidase activity, result [24]: negative
β-alanine aminopeptidase activity, result [25]: negative
β-alanine aminopeptidase activity, result [26]: negative
β-alanine aminopeptidase activity, result [27]: negative
β-alanine aminopeptidase activity, result [28]: negative
β-alanine aminopeptidase activity, result [29]: negative
β-alanine aminopeptidase activity, result [30]: negative
β-alanine aminopeptidase activity, result [31]: negative
β-alanine aminopeptidase activity, result [32]: negative
β-alanine aminopeptidase activity, result [33]: negative
β-alanine aminopeptidase activity, result [34]: negative
